Reference: publication PMC8634709, “Neuroprotective Potential of Tamarillo (Cyphomandra betacea) Epicarp Extracts Obtained by Sustainable Extraction Process” (Frontiers in Nutrition, 2021)
Marks after values point to notes of the source that are not given here.

How the values were obtained:
Conditions in all cases: mean ± SD (n = 3)
[1] = ABTS radical scavenging assay
Description: ABTS^·+ radical scavenging assay was performed according to Re et al. ([32]), with modifications. TE at six different concentrations of each sample [from 2.9 to 29 μg/ml EtOH/H2O (1:1, v/v)] was used, giving a linear response between 20 and 80% of the control absorbance. All the measurements were performed in triplicate. Equation (3) represents the percentage of ABTS^·+ inhibition due to TE extracts and Trolox compared with the ABTS control.
(3) %Inh=AABTS control−(Asample−Asample blank)/AABTS control x 100
where A ABTScontrol is absorbance of radical at t = 0 min; Asample, represents the mean of absorbance readings of TE samples, and ASampleblank is the absorbance of the sample without ABTS. The capacity of free radical scavenging was expressed by IC50 value, and the results represent the mean inhibitory concentration (in μg/ml) of TE against ABTS^·+ radical.

[2] = RNS scavenging capacity (NO radical scavenging, Griess reaction)
Description: Reactive nitrogen species scavenging capacity was measured following the NO^· radical scavenging assay according to Ho et al. ([34]) and based on the Griess reaction. […] Each measurement was carried out in triplicate, and ascorbic acid and rosemary extract were used as chemical and natural positive controls, respectively. The NO scavenging capacity of the extract was expressed through inhibition % calculated as described in Equation (3).

[3] = ROS scavenging capacity (ORAC method)
Description: In this case, a concentration range of extract from 0.62 to 6.2 μg/ml in EtOH/H2O (1:9, v/v) was measured. […] The measurements were carried out in triplicate.
(4) %Inh=AUCControl−AUCsample/AUCcontrol x 100
AUC was calculated by means of Equation (5).
where f0 and fi are fluorescence at t = 0 and every 5 min, respectively.

| SMILES | ABTS IC50 [1] | RNS IC50 [2] | ROS (ORAC) IC50 [3] |
| --- | --- | --- | --- |
| O=C1O[C@H]([C@@H](O)CO)C(O)=C1O [Ascorbic acid] | 25.000 ± 0.30^f μg/mL extract | 1100.901 ± 3.96^c μg/ml |  |
| Cc1c(C)c2c(c(C)c1O)CCC(C)(C(=O)O)O2 (racemic) [Trolox, (±)-6-hydroxy-2,5,7,8-tetramethylchromane-2-carboxylic acid] | 2.500 ± 0.02^a μg/mL extract |  | 1.290 ± 0.09^a μg/ml |
